According to patent US20120190580A1, “TREATMENT OF PATIENTS AFTER STENT IMPLANTATION OR BALLOON DILATATION AND DRUG ELUTING STENTS” (MAX-PLANCK-GESELLSCHAFT ZUR FORDERUNG DER WISSENSCHAFTEN …, priority 2009, published 2012):
Entries after “also recorded” stand apart in the source; their conditions may differ.

Columns and labels:
Type in all cases: in vivo, mouse
[1] = test system: aortae of miR-143/145 KO mice; test: Affymetrix GeneChip mRNA expression analysis of aortae after chronic captopril or losartan
Text: (§1) A 129S7AB2.2 genomic BAC clone (bMQ-446B20; Sanger) was used to generate the targeting vector. Recombination in SW102 cell was employed to replace the miR-143 to miR-145 genomic region by a galK cassette (45) that was amplified by the primers flanking premiR-143 to pre-miR-145 ([…] GCggcgcgcctcagcactgtcctgctcctt; […] ACggcgcgcctgttgacaattaatcatcggca). The genomic sequence was inserted via gap repair into a pKO targeting vector containing a DTA expression cassette and 450 bp homology arms for BAC recombination resulting in a vector containing 6.5 kb of sequence 5′ of miR-143 and 5.5 kb 3′ of miR-145 from genomic sequence […] to […]. The AscI restriction sites flanking the galK cassette were used to replace the galK by a floxed IRESIacZ-NeoR cassette. The vector was electroporated into MPI II ES cells (46) and recombinant clones were identified. Recombinant ES cells were injected into blastocysts and transferred to pseudopregnant mice. Chimeric animals were backcrossed to C57BL/6 mice. Heterozygous animals were used to obtain WT and KO littermates. ES cells and mice were genotyped using an EcoRV restriction digest and a 5′ outside probe amplified from genomic DNA using oligonucleotides ([…]; […]). […] The experiments were performed in accordance with German legislation on protection of animals and were approved by the local governmental animal care committee (Regierungspraesidium Darmstadt).
Tissues were dissected from PBS perfused animals and total RNA was isolated using the Trizol method (Invitrogen). RNA quality was checked on the Agilent 2100 Bioanalyser using the RNA 6000 Nano Kit. For mRNA expression analysis the Affymetrix GeneChip Mouse Genome 430 2.0 Array was employed with the respective one-cycle target labelling protocol. Data were analysed by the RMA algorithm using the Affymetrix Expression Console. […] 507 probe sets were identified with p<0.05 and FC>1.5 or FC<0.666. For miRNA expression analysis 384 3′ C6 aminolinker DNA-oligonucleotides complementary to published miRNA (Sanger, miRBase) sequences were synthesised and spotted with eight replicates per array to Nexterion E slides. Probe labelling and hybridization followed the Agilent miRNA labelling protocol, but P-CTTTT-Alexa555 or P-CTTTTAlexa647 oligonucleotides (MWG-Biotech) were ligated to the miRNAs. Arrays were scanned and analysed with an Axon 4200B scanner and GenePix Pro 6.0. Normalisation and data analysis was performed using Acuity 4.0. For multiple tissue comparison, miRNA from tissues was labelled with the Alexa555 dye, miRNA from whole E15.5 embryos labelled with Alexa647 dye was used as a reference. Data were linear normalized to a log ratio of 1 for the ratio of medians of let-7a-g and let-7i signals. The log 2 ratio data were centered for the single miRNA expression signals (by subtracting the row mean from each value), log 2 ratio data are visualized. For Northern blot analysis 3 μg (aorta 1.5 μg) of total RNA were separated on a 15% Polyacrylamide-Urea gel (Invitrogen) and blotted on Hybond XL (Amersham). miR-145, miR-143 and U6 antisense oligonucleotides were labeled with γ-ATP and PNK (NEB) and purified using Micro Bio-Spin® 6 columns (Biorad). Hybridization was performed in Ultrahyb hybridization buffer (Ambion) at 30° C. over night. Blots were washed 2 times in 2×SSC/0.1% SDS at 25° C. (5 min) and at 42° C. (15 min). Signals were detected using a BAS-2500 imager (Fujifilm).

arteries of KO mice = test: Morphological analysis of arteries after chronic treatment; conditions: 20 days treatment
Text: A 129S7AB2.2 genomic BAC clone (bMQ-446B20; Sanger) was used to generate the targeting vector. Recombination in SW102 cell was employed to replace the miR-143 to miR-145 genomic region by a galK cassette (45) that was amplified by the primers flanking premiR-143 to pre-miR-145 ([…] GCggcgcgcctcagcactgtcctgctcctt; […] ACggcgcgcctgttgacaattaatcatcggca). The genomic sequence was inserted via gap repair into a pKO targeting vector containing a DTA expression cassette and 450 bp homology arms for BAC recombination resulting in a vector containing 6.5 kb of sequence 5′ of miR-143 and 5.5 kb 3′ of miR-145 from genomic sequence […] to […]. The AscI restriction sites flanking the galK cassette were used to replace the galK by a floxed IRESIacZ-NeoR cassette. […]
Arteries were perfused using a PBS solution via the heart apex at 100 mmHg pressure for 2 min, followed by perfusion with 4% paraformaldehyde in PBS. […] Ultra-thin sections were stained with uranyl acetate and lead citrate, viewed and photographically recorded using a Philips CM 10 electron microscope. The phenotype of VSMC was determined ultrastructurally following criteria as previously reported (47). […] The phenotype of VSMC in each mouse was quantified in at least 300 cells per 3 arterial segments (minimum 100 μm) using consecutive transversal sections. […]

[2] = test system: femoral arteries from KO mice; test: Myograph: contractility of isolated femoral artery rings from mice chronically treated with captopril
Text: as §1
Isolated segments of femoral and mesenteric arteries were examined in an isometric microvessel myograph as described previously (52). Mounted vessels were stimulated with 80 mM K+, 30 nM angiotensin II or increasing concentrations of phenylephrine (100 nM to 10 μM). The pCa-force relationships (13, 14) were obtained in permeabilized mouse femoral artery segments. In brief, arteries were permeabilized for 30 minutes using 0.5% Triton X-100 in relaxation solution. The latter consisted of (in mM): EGTA 1, Pipes 30, Na2ATP 5.16, MgCl2 7.31, sodium creatine phosphate 10 and potassium gluconate 74.1. For contraction curves the buffer was supplemented with 160 U/ml calmodulin and 100 U/ml creatine phosphokinase. The concentration of free Ca2+ ions was calculated as described previously (53).

[3] = test system: miR-143/145-deficient mice; test: Hemodynamic measurements by aortic catheterization under isoflurane, acute ACE inhibition; conditions: miR-143/145 KO animals compared with WT, isoflurane anaesthesia, captopril via jugular vein
Experimental: Aortic catheterization was performed using a 1.4 F pressure-volume catheter. Data were recorded and analyzed with Chart v5.4 as described before (51). Mice were anaesthetized with isoflurane (2 vol % in O2) and their body temperature was kept at 37° C. as monitored by a rectal probe. Captopril (30 mg/kg body weight, 50 μl) and angiotensin II (5 to 50000 ng/kg body weight, 50 μl) were applied via the left jugular vein. For measurements of conscious, unrestrained mice, hemodynamic parameters were recorded by telemetry (DSI, Transoma Medical, USA, TA11PA-C10 transmitters) after a recovery period from surgery of more than 7 days. Recordings were obtained every 2 minutes for 20 seconds at a sampling frequency of 1000 Hz and were analyzed for day (07:00-19:00) and nighttime (19:00-07:00) periods, respectively, to evaluate circadian variation in hemodynamics.

[4] = aorta, chronic oral treatment 20 days
[5] = KO femoral arteries, chronic captopril
[6] = mutant (KO) femoral arteries, captopril treatment vs. KO untreated

In the case of `C[C@H](CS)C(=O)N1CCC[C@H]1C(=O)O` [captopril], the “FC Acta1 (1427735_a_at), treated miR-143/145 KO vs. WT” value [1, 4] is reported as 0.87, the “FC Arhgef17 (1433682_at), treated miR-143/145 KO vs. WT” value [1, 4] is reported as 0.82 and the “FC Cald1 (1424768_at), treated miR-143/145 KO vs. WT” value [1, 4] is reported as 1.09. The “FC Camk2g (1423942_a_at), treated miR-143/145 KO vs. WT” value [1, 4] was 0.87, the “FC Cap2 (1423222_at), treated miR-143/145 KO vs. WT” value [1, 4] was 0.77 and the “FC Clcn3 (1433486_at), treated miR-143/145 KO vs. WT” value [1, 4] was 1.09. For the same compound, the “FC Efemp1 (1427183_at), treated miR-143/145 KO vs. WT” value [1, 4] was 1.22, the “FC Itga3 (1455158_at), treated miR-143/145 KO vs. WT” value [1, 4] was 0.76 and the “FC Krt8 (1420647_a_at), treated miR-143/145 KO vs. WT” value [1, 4] was 1.09. The “FC Mc2r (1422926_at), treated miR-143/145 KO vs. WT” value [1, 4] was 1.23, the “FC Mylk (1425506_at), treated miR-143/145 KO vs. WT” value [1, 4] was 0.90 and the “FC Mylpf (1448371_at), treated miR-143/145 KO vs. WT” value [1, 4] was 0.77. The “FC Myoc (1450468_at), treated miR-143/145 KO vs. WT” value [1, 4] was 0.99, the “FC Neo1 (1440789_at), treated miR-143/145 KO vs. WT” value [1, 4] was 1.07 and the “FC Npr3 (1435184_at), treated miR-143/145 KO vs. WT” value [1, 4] was 1.00. For the same compound, the “FC Pde3b (1433694_at), treated miR-143/145 KO vs. WT” value [1, 4] was 1.04, the “FC Ppp2r1b (1419871_at), treated miR-143/145 KO vs. WT” value [1, 4] was 0.81 and the “FC Prkg1 (1449876_at), treated miR-143/145 KO vs. WT” value [1, 4] was 1.12. For the same compound, the “FC Rock1 (1460729_at), treated miR-143/145 KO vs. WT” value [1, 4] was 0.99, the “FC S100a8 (1419394_s_at), treated miR-143/145 KO vs. WT” value [1, 4] was 0.81 and the “FC S100a9 (1448756_at), treated miR-143/145 KO vs. WT” value [1, 4] was 0.78. The “FC Serca1 (1419312_at), treated miR-143/145 KO vs. WT” value [1, 4] was 0.72, the “FC Tnnc2 (1417464_at), treated miR-143/145 KO vs. WT” value [1, 4] was 1.13 and the “FC Unc5c (1449522_at), treated miR-143/145 KO vs. WT” value [1, 4] was 0.63. The “number of the 507 deregulated probe sets returned to normal (WT) levels” value ([1]; mutant mice, 3 weeks (20 days) oral application, p > 0.05 vs. WT, n = 3) was 248, the “significant morphological changes in arteries” value (arteries of KO mice) was “not observed” and the “angiotensin II-induced contraction after ACE inhibition” value [2, 5] was 9 % of K+ contraction. For the same compound, the “maximal force of contraction generated by K+-induced depolarization” value [2, 5] was “No change; also recorded: did not improve”, the “phenylephrine-effects after ACE inhibition” value [2, 5] was 46 % of the K+ contraction and the “Maximal angiotensin II-induced force of contraction” value ([2]; captopril-treated WT vessels, femoral artery, 20 day oral treatment) was 3.4±0.6 mN. For the same compound, the “Maximal angiotensin II-induced force of contraction” value ([2]; femoral arteries from miR-143/145 KO mice after captopril treatment, 20 days oral) was 0.30±0.05 mN, the “angiotensin II induced contractile responses” value [2, 6] was “significantly improved; also recorded: markedly improved” and the “contractile response to phenylephrine” value [2, 6] was “improved responses; also recorded: markedly improved”. For the same compound, the “diastolic pressure after acute inhibition of ACE” value [3] was “stronger decrease; also recorded: pronounced reduction”.
